Data reported in patent EP1379135B1, “FORMULATIONS COMPRISING ENTRAPPED ACTIVE INGREDIENTS AND USES THEREOF” (THE SCRIPPS RESEARCH INSTITUTE, priority 2001, dated 2002).
“Also recorded” adds a separate entry of the source.

How the values were obtained:
iNOS mRNA = iNOS mRNA expression (Northern Blot); assay type: cell-based, human
Procedure: Total RNA was isolated from 2 x 10^6 chondrocytes stimulated using the STAT-60 reagent (Tel-Test, Friendswood, TX). RNA for each sample was quantified photometrically, and 5 µg was separated on 1.2% agarose, 6% formaldehyde gels. After electrophoresis, the gels were photographed, and the RNA was transferred onto HybondN nylon membranes (BRL, Baithesburg, MD) by capillary blotting. Membranes were air-dried and incubated for 2 hrs at 80°C. Prehybridization was done for 2 hrs at 60°C in 5 x SCC, 1 mM EDTA, 0.2% SDS and 5 x Denhardt solution. Radio-labeled probe was added and hybridization was carried out overnight at 60°C. After hybridization, the filters were rinsed twice in 2 x SSC, 0.1% SDS, washed once in 2 x SCC, 0.1 % SDS at 60°C and once in 0.2 x SCC, 0.1 % SDS at 60°C. The membranes were covered with plastic wrap and exposed with an intensifying screen for 12 hr at -70°C. The probes used for the hybridization were prepared as described earlier (Geng et al., (1993) J. Immunol. 151:6692; Geller et al., (1993) Proc. Natl. Acad. Sci. USA 90:3491).

COX-2 protein = COX-2 protein expression in IL-1β stimulated chondrocytes (Western Immunoblot); assay type: cell-based, human
Procedure: Whole cell extracts were prepared from 3 x 10^6 chondrocytes stimulated as described above by lysing the cells on the plate with ice cold lysis buffer (10 mM TrisHCl pH 7.6, 158 mM NaCl, 1 mM EDTA, 0.1% SDS, 1% Triton X-100, leupeptin […], aprotinin 1µg/ml, and 0.5 mM PMSF), which was added immediately before use. The lysates were transferred to Eppendorf tubes and centrifuged at 20,000 g for 30 min at 4 °C. The supernatants were transferred into fresh tubes, and the protein concentration was determined by Bradford assay. Similar amounts of protein were separated by 10% SDS PAGE and transferred to a nitrocellulose filter (Schleicher & Schuell, Keene, NH) by electroblotting. The filter was blocked overnight in 5% milk powder/TBS-T solution and then further incubated with one of the following antibodies: anti-iNOS (C-19, Santa Cruz Biotechnology, Inc., Santa Cruz, CA), anti-COX-2 (Cayman Chemical, Ann Arbor, MI), anti-COX-1 (H-3, Santa Cruz Biotechnology, Inc.), anti-phospho-JNK (phosphoThr 183 /Tyr 185, New England Biolabs, Inc., Beverly, MA), anti-phospho-p38MAP (phospho-Thr […]/Tyr 182, New England Biolabs, Inc.) or anti-phospho-ERK (phosphoThr 180/Tyr 182, New England Biolabs, Inc.) for 2 hrs. […]

NF-κB = experiment: IL-1β-induced nuclear translocation of NF-κB (gel shift of nuclear extracts); assay type: cell-based, human
Procedure: Nuclear protein extracts were prepared as follows: 2 x 10^6 chondrocytes were stimulated as indicated. The cells were harvested by trypsinization, washed once with ice cold PBS and lysed in 10 mM Tris-HCl buffer pH 7.5 containing 2 mM MgCl2, 140 mM NaCl, 0.5 mM DTT, 0.05% Triton X-100, 0.5 mM PMSF, leupeptin 1 µg/ml and aprotinin 1 µg/ml. The nuclei were spun down, resuspended in 20 mM HEPES buffer pH 7.9, containing 25% glycerol, 420 mM NaCl, 1.5 mM MgCl2, 0.2 mM EDTA, 0.5 mM DTT, 0.5 mM PMSF, leupeptin 1 µg/ml and aprotinin 1 µg/ml, and rotated at 4°C for 30 minutes. After removal of the nuclear debris by centrifugation, the protein concentration of the lysate was determined by Bradford assay. Equal amounts of the nuclear extracts (2 µg) were incubated for 15 minutes at room temperature with poly-(dI-dC)poly-(dI-dC) (0.1 mg/ml), BSA (1 mg/ml), 1 x […] counts of double-stranded radiolabeled oligodeoxynucleotide containing the NF-κB consensus DNA binding site (sequence: 5'-[…]-3') in 20 mM HEPES buffer pH 7.9 containing 10% glycerol, 420 mM NaCl, 1.5 mM MgCl2, 0.2 mM EDTA, 0.5 mM DTT and 0.5 mM PMSF. For competition experiments, unlabeled NF-κB oligodeoxynucleotide or oligodeoxynucleotide containing the Oct-1 consensus sequence were added at 100-fold molar excess to the binding reactions 10 minutes prior to the addition of radiolabeled NFκB oligodeoxynucleotide. […]

hexosaminidase = experiment: IL-1β mediated increase in hexosaminidase secretion in chondrocytes; assay type: cell-based, human
[1] = Induction of TGFα1 in chondrocytes with IL-1β; assay type: cell-based, human; conditions: together with IL-1β
chondrocytes = experiment: Cell viability, MTT assay; assay type: cell-based, human; conditions: up to 20 mM
bradykinin-induced pain = experiment: Bradykinin-induced pain after intra-articular administration (walking behavior pain score); assay type: in vivo; conditions: Wistar rats, Figure 7
Procedure: The purpose of this study was to investigate the analgesic effects of GlcNAc with or without liposomal formulations, injected intra-articularly into the joint of Wistar rats. Pain was induced by intra-articular administration of bradykinin. Adult male Wistar rats with a weight range from 220g to 250g were obtained from Laboratory Animals Centre, National University of Singapore. Bradykinin and GlcNAc were obtained from Sigma. The liposomes were prepared as described above. 50 µl of GlcNAc solution or an GIcNAc formulated liposome suspension was injected into a rat joint cavity. An equal volume of saline was given intra-articularly as a control. 50 µl of bradykinin (60 µg/ml or at the indicated concentration) was given intra-articularly at different time points following the administration of GlcNAc. Changes in walking behavior caused by intra-articular injection of bradykinin were used to define induced pain criteria in rats. The methods used to observe the pain response are defined in Table 2. The degree of pain was assigned a score according to the criteria in Table 3. Table 2 [table] [table]

SMILES: CC(=O)N[C@H]1C(O)O[C@H](CO)[C@@H](O)[C@@H]1O (stereo partly shown) [GlcNAc, N-acetylglucosamine]
- expression of iNOS mRNA (iNOS mRNA): strongly inhibited
- expression of COX-2 protein (COX-2 protein): inhibited
- IL-1β-induced nuclear translocation of NF-κB (NF-κB): did not affect
- IL-1β mediated increase in hexosaminidase secretion (hexosaminidase): did not suppress
- induction of TGFα1 [1]: synergistic with IL-1β
- cell viability (chondrocytes): Neither GA nor GlcNAc at dosages up to 20 mM affected cell viability
- analgesic effects on bradykinin-induced pain (pain scores) (bradykinin-induced pain): small, but statistically insignificantly, analgesic effects; also recorded: small, but statistically insignificant, analgesic effects
